# Results published in PubChem BioAssay AID2305 (GlaxoSmithKline (GSK), 2010).
# Tested on: P. falciparum 3D7 growth, pLDH absorbance
# Experiment: blood-stage malaria parasite growth potency – strain 3D7, dose response (AID 2305)
compound,measurement,value
Cc1noc(C)c1-c1cccc(CNCc2ccc(-c3ccc(-c4nc5c(C)cccc5[nH]4)cc3)cc2)c1,IC50,240 nM
N#Cc1ccc(N(CC(=O)NCCc2ccccc2)CC2CC2)c2ccccc12,IC50,730 nM
CCC(C)(CC)C(=O)n1ncc2c3c(N)nc(N)nc3ccc21,IC50,10 nM
COc1cc(NCCCNCc2cn(S(=O)(=O)c3ccccc3)c3ccccc23)nc2ccccc12,IC50,390 nM
CCN(CC)CCNc1c2ccc(Cl)cc2nc2ccc(OC)nc12,IC50,740 nM
O=C(NC1CCN(c2ccnc3cc(Cl)ccc23)C1)c1ccc(F)cc1 (stereo unspecified),IC50,190 nM
CCCCCCCCCCS(=O)(=O)N[C@H](COCc1cccc(Oc2ccccc2)c1)COP(=O)(O)OC,IC50,1020 nM
COc1cc2c(cc1C(F)(F)F)N(C(=O)Nc1cc(Br)cc(-c3cccnc3)c1)CC2,IC50,860 nM
N#Cc1ccc(N2CCN(Cc3cccc(-c4cccc(-c5nc6ccc(F)cc6[nH]5)c4)c3)CC2)nc1,IC50,960 nM
O=C(Nc1cccc(-c2csc(-c3ccccc3)n2)c1)c1cccs1,IC50,800 nM
Fc1ccc2nc(-c3cccc(-c4cccc(CNCCN5CCNCC5)c4)c3)[nH]c2c1,IC50,840 nM
COc1cc(CCN(C)Cc2ccc(OC)c(OC)c2)ccc1NC(=O)c1cccc2c(=O)c3cccc(F)c3[nH]c12,IC50,200 nM
CCOC(=O)C(C(C)=O)C(c1ccccc1)C(C(C)=O)C(=O)OCC (stereo unspecified),IC50,750 nM
CC(C)(C)c1ccc(NC(=O)c2cccc(CN3CCCN(Cc4cccc(C#N)c4)CC3)c2)cc1,IC50,760 nM
c1ccc(-c2cc3cccc(-c4nc5ccncc5[nH]4)c3o2)cc1,IC50,110 nM
COc1ccc(CNCc2cccc(-c3cccc(-c4nc5c(C)cccc5[nH]4)c3)c2)cc1,IC50,130 nM
O=C(/C=C/c1ccc(F)c(Br)c1)NCCCCCN1CCC(c2c[nH]c3ccccc23)CC1,IC50,860 nM
O=C(Nc1cc(Oc2ccc(O)cc2)cc([N+](=O)[O-])c1)c1cc(-c2ccc(F)cc2)no1,IC50,960 nM
CC(=NN=C(N)N)c1ccc2c(c1)Cc1ccccc1-2,IC50,1410 nM
CCn1c(-c2nonc2N)nc2c(-c3cccc(Cl)c3)ncc(OCCCNCCc3cnc[nH]3)c21,IC50,980 nM
Cc1[nH]c(C)c(-c2ccc(Oc3cccc(Cl)c3)cc2)c(=O)c1Br,IC50,30 nM
Nc1nc(N)c2c(Oc3cccc4ccccc34)cccc2n1,IC50,1010 nM
CC12CCC(=O)N1C(C(=O)Nc1cccc(C(=O)Nc3cccc(C(F)(F)F)c3)c1)CS2 (stereo unspecified),IC50,360 nM
CCCc1cc([C@@H](O)[C@@H]2C[C@@H]3CCN2C[C@@H]3CC)c2ccccc2n1,IC50,430 nM
N#Cc1ccc(C(=O)Nc2ccc(-c3cccc(CN4CCCC4)c3)cc2)cc1,IC50,1000 nM
CCCN(CCC)C(=O)c1cc(C(=O)N[C@@H](Cc2ccccc2)[C@H](O)CNC2CC2)cc(N2CCCCS2(=O)=O)c1,IC50,160 nM
O=C(NCCCCN1CCC(C(c2ccccc2)c2ccccc2)CC1)c1ccc(NC(=O)c2ccc(Cl)cc2)cc1,IC50,770 nM
COc1cccc2[nH]c(NCCCNCc3cc(Br)cc(Br)c3)nc12,IC50,950 nM
COc1cccc2c(C)cc(NCc3ccc(Cl)cc3)nc12,IC50,860 nM
COc1ccc(NC(=O)[C@H](CC(C)C)Nc2cc(C)nc(NCCc3ccccc3OC)n2)cc1,IC50,990 nM
COc1ccc2c(NN=Cc3ccc(Cl)cc3)ccnc2c1,IC50,870 nM
COc1ccc(-c2cccc(NC(=O)c3cccc(C#N)c3)c2)cc1CN1CCN(C)CC1,IC50,930 nM
O=C(N[C@@H](Cc1ccccc1)C(=O)NC1CCCCC1)c1ccc(O)c(-c2ccc(Cl)c(Cl)c2)c1,IC50,230 nM
CCOC(=O)c1cccc(NC(=O)Nc2cc(C)nc3ccccc23)c1,IC50,290 nM
CCCCOc1c(CCC)cc(Cc2cnc(N)nc2N)cc1CCC,IC50,630 nM
Nc1nc2c(cnn2CCCCCCCP(=O)(O)O)c(=O)[nH]1,IC50,470 nM
CCCCNCc1ccc(-c2nc(CN(C(=O)Nc3cc([N+](=O)[O-])ccc3F)C3Cc4ccccc4C3)cs2)cc1,IC50,1100 nM
O=C1COC2(CN1C1CCN(Cc3ccc(O)c(Cl)c3)C1)c1ccccc1-c1ccccc12 (stereo unspecified),IC50,960 nM
O=C(Nc1cccc(CN2CCCN(Cc3ccc(O)cc3)CC2)c1)c1cc2ccccc2s1,IC50,360 nM
COc1ccc2nccc(N3CCC(O)(CCNCc4ccc5c(n4)NC(=O)CO5)CC3)c2n1,IC50,820 nM
Nc1nc(F)nc2nc[nH]c12,IC50,430 nM
CC(C)CCn1c(Sc2ccc(C#N)c([N+](=O)[O-])c2)nnc1-c1ccccc1Cl,IC50,1030 nM
C[C@H](Cc1ccc(C[C@@H](C)NCC(O)c2cc(Cl)c(N)c(Cl)c2)cc1)NCC(O)c1cc(Cl)c(N)c(Cl)c1 (stereo partly specified),IC50,890 nM
O=C1NC(=O)C(c2cccc(NC(=O)c3ccncc3)c2)=C1c1ccccc1,IC50,740 nM
NC(=O)c1cc2nc(Nc3ccc(F)cc3)nc(Nc3ccc(S(N)(=O)=O)cc3)c2[nH]1,IC50,800 nM
CN1CCN(CC2(Nc3nccc(NCCc4cn(C)c5ccccc45)n3)CCCCC2)CC1,IC50,1810 nM
O=C(C=Cc1ccc(Cl)c(Cl)c1)NCCCCCN1CCC(c2[nH]nc3ccccc23)CC1,IC50,640 nM
COc1cc([N+](=O)[O-])ccc1NC(=O)c1cc(Cl)ccc1O,IC50,1140 nM
O=c1cc(NCCCNCc2cc(F)cc(C(F)(F)F)c2)[nH]c2ccccc12,IC50,1200 nM
CN(C)CCNCc1cccc(-c2ccc3c(Nc4ccc(Oc5ccccn5)cc4)ccnc3c2)c1,IC50,230 nM
Cc1cccc2[nH]c(-c3ccc(-c4ccc(CNCc5cccc(N)c5)cc4)cc3)nc12,IC50,570 nM
O=C(c1cccc(-c2cccc(-c3nc4ccc(C(F)(F)F)cc4[nH]3)c2)c1)N1CCCCC1CN1CCC(O)C1 (stereo unspecified),IC50,280 nM
CCC(CC)n1c(COC)cc2c3c(N)nc(N)nc3ccc21,IC50,10 nM
Oc1ccc(CCCc2cc(Oc3c(I)cc(CCc4ncc[nH]4)cc3I)ccc2O)cc1,IC50,870 nM
c1ccc(Oc2ccc(Nc3nc(NCCc4cnc[nH]4)nc(NC4CCCC4)n3)cc2)cc1,IC50,1030 nM
CCNc1cc(C(=O)N[C@@H](Cc2ccccc2)[C@H](O)CN[C@@H]2CCc3ccccc32)cc(N2CCCCS2(=O)=O)c1,IC50,550 nM
CCOc1cc(C(=O)NCc2ccc(Cl)c(Cl)c2)ccc1-c1nc2ccc(Cl)cc2[nH]1,IC50,800 nM
CC1(C)CCC(C)(C)c2c1ccc(C1CCN(CCCCNC(=O)c3ccc(-c4ccc(Cl)cc4)cc3)CC1)c2O,IC50,480 nM
CCCC(C)c1ccc(N2C(N)=NC(N)=NC2(C)C)cc1 (stereo unspecified),IC50,10 nM
O=c1c(Br)c(C(F)(F)F)[nH]c2ccc(Oc3ccccc3)cc12,IC50,1100 nM
Cn1cnc(CCNC(=O)c2ccc(-c3cccc(-c4nc5ccccc5[nH]4)c3)cc2)c1,IC50,1100 nM
O=C(/C=C/c1ccc(-c2nc3cc(F)c(F)cc3[nH]2)cc1)NCc1ccc(Cl)c(Cl)c1,IC50,940 nM
CCn1ncc(Cl)c1CN(C)S(=O)(=O)c1ccc2ccccc2c1,IC50,820 nM
Cc1cc(C)cc(OCC(O)CN(CCN2CCOCC2)C(=O)Nc2ccc(Br)cc2)c1 (stereo unspecified),IC50,1030 nM
CCN(CC)CCCC(C)Nc1cc(C)nc2cc(Cl)ccc12 (stereo unspecified),IC50,730 nM
CC[C@H]1CN2CC[C@@H]1C[C@H]2[C@H](O)c1cc(N2CCC(O)CC2)nc2ccc(OC)cc12,IC50,170 nM
COc1cc2c(cc1C(F)(F)F)N(C(=O)Nc1cc(F)c(F)c(-c3cccnc3)c1)CC2,IC50,630 nM
CC1CCC(C[C@@H](C(=O)N[C@@H](CCC(=O)N2CCCCC2)C(=O)Nc2nccs2)[C@H](C(C)C)N(O)C=O)CC1 (stereo partly specified),IC50,620 nM
O=C(C=Cc1cn(-c2ccccc2)nc1-c1ccccc1)N1CCN(c2ccncc2)CC1,IC50,960 nM
CC(C)(C)NS(=O)(=O)c1cc(C(=O)N2CCC(CCN3CCC(O)(c4cccc(C(F)(F)F)c4)CC3)(c3cccc(F)c3)CC2)c(Cl)cc1F,IC50,860 nM
CCCN(CCC)C(=O)c1cc(C(=O)N[C@@H](Cc2ccccc2)[C@H](O)CNC(C)(C)c2cccc(C(F)(F)F)c2)cc(N2CCCCS2(=O)=O)c1,IC50,40 nM
COc1c(C2CCN(CCCCNC(=O)c3ccc(-c4ccc(Cl)cc4)c(OCC(N)=O)c3)CC2)ccc2c1CCCC2,IC50,1010 nM
COc1ccccc1NS(=O)(=O)c1cc(C(=O)Nc2ccc(N3CCOCC3)c(S(=O)(=O)Nc3ccccc3Cl)c2)ccc1Cl,IC50,830 nM
Cc1cc(=O)c(-c2ccc(Sc3ccc(Cl)cc3)cc2)c(C)[nH]1,IC50,970 nM
Cc1[nH]c2ccccc2c1C(=O)CSc1nn(-c2ccccc2)c(=S)s1,IC50,700 nM
CC(Cc1ccc(OCCOc2ccccc2)cc1)NCC(O)c1cccc(Cl)c1 (stereo unspecified),IC50,1040 nM
O=C(Nc1ccc(C(F)(F)F)cc1)N[C@H]1CCN(CCCCCNC(=O)[C@@H]2C[C@H]2c2ccc(Cl)c(Cl)c2)C1,IC50,1100 nM
CC(=O)CC(=O)N1CCN(c2ccccc2)CC1,IC50,1060 nM
COC(=O)c1cccc(CNCc2ccc(-c3cccc(-c4nc5ccccc5[nH]4)c3)cc2)c1,IC50,260 nM
O=S(=O)(NC1CCN(c2ccnc3cc(Cl)ccc23)C1)c1ccc(C(F)(F)F)cc1 (stereo unspecified),IC50,300 nM
COc1cccc(C(=O)C2CC2CN2CC=C(c3c[nH]c4ccc(OC)nc34)CC2)c1 (stereo unspecified),IC50,530 nM
CC(C)CNCc1ccc(-c2cccc(CNC3CCN(Cc4ccccc4)CC3)c2)cc1,IC50,240 nM
O=C(Cn1c(CCc2cccc(F)c2F)nc(=O)c2ccccc21)N(CCN1CCCC1)Cc1ccc(-c2ccc(C(F)(F)F)cc2)cc1,IC50,710 nM
CC(C)CCN1CCC(Oc2ccc(NC(=O)c3ccc(F)cc3)cc2Cl)CC1,IC50,720 nM
FC(F)(F)c1ccc2c(NN=Cc3cccc(Cl)c3)ccnc2c1,IC50,840 nM
Clc1ccc2nccc(N3CCC(CN4CCC(c5c[nH]c6ccccc56)CC4)CC3)c2c1,IC50,30 nM
Cc1cccc2[nH]c(-c3cccc(-c4ccc(CNCCc5ccncc5)cc4)c3)nc12,IC50,120 nM
CC(=O)Nc1ccc(OCCCCN(Cc2ccccc2C(F)(F)F)c2ccc(C#N)c(C(F)(F)F)c2)c(Cl)c1,IC50,980 nM
Cc1[nH]c2cc(Cl)ccc2c1C1=CCN(CCCCC2(C)C(=O)Nc3ccccc32)CC1 (stereo unspecified),IC50,330 nM
Cc1ccc(C2(C)CN(CCCOc3cccc(-c4ccc(C(=O)NC(C)C)cc4)c3)CCO2)cc1 (stereo unspecified),IC50,960 nM
CN(C)CCN(C)Cc1ccc(-c2ccc3c(Nc4ccc(Oc5ccccc5)cc4)ccnc3c2)o1,IC50,180 nM
CCCC1N=C(N)N=C(N)N1c1cccc([N+](=O)[O-])c1 (stereo unspecified),IC50,760 nM
Cc1cc(N[C@@H](CC(C)C)C(=O)NCc2cccc(F)c2)nc(NCC2CCCCC2)n1,IC50,830 nM
O=C(Cc1ccc([N+](=O)[O-])cc1)N1CCc2cc3nccc(N4CCN5CCC[C@H]5C4)c3cc21,IC50,840 nM
CCOC(=O)c1[nH]c(-c2cccnc2)nc1NC(=S)NCc1ccccc1,IC50,710 nM
CNC(=O)C1Cc2c([nH]c3cc(Cl)ccc23)C2(CCN(CCc3ccccc3)CC2)N1 (stereo unspecified),IC50,930 nM
